Test results published in US11306079B2, “3-(5-amino-pyrazin-2-yl)-benzenesulfonamide derivatives and related compounds as PI3K-gamma kinase inhibitors” (Incyte Corporation, priority 2017, dated 2022).
Structures can show the parent of a compound that is named as a salt.

What was measured:
[1] = target: PI3Kγ (p110γ) Recombinant Human Protein (Homo sapiens (Human), UniProt P48736); assay: PI3K-γ Scintillation Proximity Assay; type: biochemical; details: 20 μM PIP2, 2 μM ATP, 13 nM PI3Kγ, 120 min, room temperature
Excerpt: Example B. PI3K-γ Scintillation Proximity Assay
(§1) [γ-^33P]ATP (10 mCi/mL) and Wheat Germ Agglutinin (WGA) YSi SPA Scintillation Beads was purchased from Perkin-Elmer (Waltham, Mass.). Lipid kinase substrate, D-myo-Phosphatidylinositol 4,5-bisphosphate (PtdIns(4,5)P2)D (+)-sn-1,2-di-O-octanoylglyceryl, 3-O-phospho linked (PIP2), CAS 204858-53-7, was purchased from Echelon Biosciences (Salt Lake City, Utah). PI3Kγ (p110γ) Recombinant Human Protein was purchased from Life technology (Grand island, NY), ATP, MgCl2, DTT, EDTA, MOPS and CHAPS were purchased from Sigma-Aldrich (St. Louis, Mo.).
(§2) The kinase reaction was conducted in polystyrene 384-well Greiner Bio-one white plate from Thermo Fisher Scientific in a final volume of 25 μL. Inhibitors were first diluted serially in DMSO and added to the plate wells before the addition of other reaction components. The final concentration of DMSO in the assay was 2%. The PI3Kγ assay was carried out at room temperature in 20 mM MOPS, pH 6.7, 10 mM MgCl2, 5 mM DTT and CHAPS 0.03%. Reactions were initiated by the addition of ATP, the final reaction mixture consisted of 20 μM PIP2, 2 μM ATP, 0.5 μCi [γ-^33P] ATP, 13 nM PI3Kγ. Reactions were incubated for 120 min and terminated by the addition of 40 μL SPA beads suspended in quench buffer: 163 mM potassium phosphate pH 7.8, 20% glycerol, 25 mM EDTA. The final concentration of SPA beads is 1.0 mg/mL. After the plate sealing, plates were shaken overnight at room temperature and centrifuged at 1500 rpm for 10 min, the radioactivity of the product was determined by scintillation counting on Topcount (Perkin-Elmer). IC50 determination was performed by fitting the curve of percent of the solvent control activity versus the log of the inhibitor concentration using the GraphPad Prism 6.0 software.

[2] = target: PI3Kδ (p110δ/p85α) Recombinant Human Protein (Homo sapiens (Human), UniProt O00329); assay: PI3Kδ Scintillation Proximity Assay; type: biochemical; details: 20 μM PIP2, 2 μM ATP, 3.4 nM PI3Kδ, 120 min, room temperature
Excerpt: Example C. PI3Kδ Scintillation Proximity Assay
as §1, with “PI3Kδ (p110δ/p85α)” for “PI3Kγ (p110γ)”, “Eurofins (St Charles, Mo.).” for “Life technology (Grand island, NY),”
as §2, with “PI3Kδ” for “PI3Kγ”, “3.4” for “13”, “PI3Kδ.” for “PI3Kγ.”

[3] = system: Phosphorylated Ribosomal Protein S6 (RPS6) in THP-1 cells; assay: THP-1 RPS6 ELISA Assay; type: cell-based; details: Homo sapiens; serum starved THP-1 cells, 2 hours with compound, 10 nM MCP-1 for 15 minutes, Phospho-RPS6 ELISA; read-out: PI3Kγ_THP1_RPS6_ELISA IC50
Description: Example A. THP-1 RPS6 ELISA Assay
To measure the Phosphorylated Ribosomal Protein S6 (RPS6) in cell lysates, THP-1 cells (Human Acute Monocytic Leukemia) are purchased from ATCC (Manassas, Va.) and maintained in RPMI with 10% FBS (Gibco/Life Technologies, Carlsbad, Calif.). For the assay, THP-1 cells are serum starved overnight in RPMI, then plated in RPMI (2×10^5 cells/well in 90 μL) into 96-well flat-bottom tissue culture treated plates (Corning, Corning, N.Y.), in the presence or absence of a concentration range of test compounds. Covered plates are incubated for 2 hours at 37° C., 5% CO2 then treated with or without 10 nM MCP-1 (MYBioSource, San Diego, Calif.) for 15 minutes at 37° C., 5% CO2. Plates are centrifuged at 1600 RPM and supernatants are removed. Cells are lysed in Lysis Buffer (Cell Signaling, Danvers, Mass.) with Protease Inhibitor (Calbiochem/EMD, Germany), PMSF (Sigma, St Louis Mo.), HALTS (Thermo Fisher, Rockford, Ill.) for 30 min on wet ice. Cell lysates are frozen at −80° C. before testing. The lysates are tested in the Human/Mouse/Rat Phospho-RPS6 ELISA (R&D Systems, Inc. Minn, Minn.). The plate is measured using a microplate reader (SpectraMax M5—Molecular Devices, LLC Sunnyvale, Calif.) set to 450 nm with a wavelength correction of 540. IC50 determination is performed by fitting the curve of inhibitor percent inhibition versus the log of the inhibitor concentration using the GraphPad Prism 5.0 software.

Chain of PI3Kδ (p110δ/p85α) Recombinant Human Protein (O00329 whole entry): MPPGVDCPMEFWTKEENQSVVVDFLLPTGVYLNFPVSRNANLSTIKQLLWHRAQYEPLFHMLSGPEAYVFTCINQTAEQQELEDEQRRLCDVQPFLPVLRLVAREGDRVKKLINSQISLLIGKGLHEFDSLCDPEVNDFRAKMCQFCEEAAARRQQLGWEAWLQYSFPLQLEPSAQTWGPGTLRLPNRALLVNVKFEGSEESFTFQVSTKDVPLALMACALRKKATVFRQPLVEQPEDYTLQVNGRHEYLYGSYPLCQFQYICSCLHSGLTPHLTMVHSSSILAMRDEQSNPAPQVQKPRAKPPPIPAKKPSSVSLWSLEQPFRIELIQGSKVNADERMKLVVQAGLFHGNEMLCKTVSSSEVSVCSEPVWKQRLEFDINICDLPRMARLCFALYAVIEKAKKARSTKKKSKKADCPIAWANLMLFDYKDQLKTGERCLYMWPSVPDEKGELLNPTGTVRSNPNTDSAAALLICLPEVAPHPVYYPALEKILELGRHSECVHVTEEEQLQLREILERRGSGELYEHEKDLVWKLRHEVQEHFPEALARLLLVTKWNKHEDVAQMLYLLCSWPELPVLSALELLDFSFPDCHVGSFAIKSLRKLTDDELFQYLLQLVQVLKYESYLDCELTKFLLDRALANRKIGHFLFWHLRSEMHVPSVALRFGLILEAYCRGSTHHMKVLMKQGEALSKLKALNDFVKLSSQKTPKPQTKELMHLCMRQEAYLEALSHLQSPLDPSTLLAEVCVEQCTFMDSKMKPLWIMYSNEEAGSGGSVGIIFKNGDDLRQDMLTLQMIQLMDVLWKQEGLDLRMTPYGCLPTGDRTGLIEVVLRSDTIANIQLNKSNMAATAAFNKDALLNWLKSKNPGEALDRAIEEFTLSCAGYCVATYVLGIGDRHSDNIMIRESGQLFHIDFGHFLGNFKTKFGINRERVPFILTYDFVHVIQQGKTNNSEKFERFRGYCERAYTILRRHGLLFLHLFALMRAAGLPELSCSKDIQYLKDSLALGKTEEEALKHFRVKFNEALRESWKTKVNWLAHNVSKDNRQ
Chain of PI3Kδ (p110δ/p85α) Recombinant Human Protein (P27986 whole entry partner): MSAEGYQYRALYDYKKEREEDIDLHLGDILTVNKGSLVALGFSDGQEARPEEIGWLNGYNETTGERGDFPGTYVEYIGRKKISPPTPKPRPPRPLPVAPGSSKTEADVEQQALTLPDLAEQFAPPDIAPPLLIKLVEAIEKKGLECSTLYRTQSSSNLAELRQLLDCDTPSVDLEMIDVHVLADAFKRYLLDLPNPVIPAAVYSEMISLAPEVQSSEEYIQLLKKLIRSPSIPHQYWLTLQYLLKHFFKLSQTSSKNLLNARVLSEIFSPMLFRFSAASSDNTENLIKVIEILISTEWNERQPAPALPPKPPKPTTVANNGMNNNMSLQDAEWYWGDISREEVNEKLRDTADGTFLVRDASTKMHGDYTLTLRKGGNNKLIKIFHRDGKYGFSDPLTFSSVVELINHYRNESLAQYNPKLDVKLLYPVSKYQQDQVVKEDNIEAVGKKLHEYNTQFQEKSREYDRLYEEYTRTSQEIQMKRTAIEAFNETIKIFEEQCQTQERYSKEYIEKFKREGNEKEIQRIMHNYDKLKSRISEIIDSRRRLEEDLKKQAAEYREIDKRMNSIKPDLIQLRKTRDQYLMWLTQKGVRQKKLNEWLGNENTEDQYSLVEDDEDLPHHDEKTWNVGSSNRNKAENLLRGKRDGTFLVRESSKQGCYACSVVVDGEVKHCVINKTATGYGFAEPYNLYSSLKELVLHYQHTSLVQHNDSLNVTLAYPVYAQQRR
Chain of PI3Kγ (p110γ) Recombinant Human Protein (P48736 whole entry): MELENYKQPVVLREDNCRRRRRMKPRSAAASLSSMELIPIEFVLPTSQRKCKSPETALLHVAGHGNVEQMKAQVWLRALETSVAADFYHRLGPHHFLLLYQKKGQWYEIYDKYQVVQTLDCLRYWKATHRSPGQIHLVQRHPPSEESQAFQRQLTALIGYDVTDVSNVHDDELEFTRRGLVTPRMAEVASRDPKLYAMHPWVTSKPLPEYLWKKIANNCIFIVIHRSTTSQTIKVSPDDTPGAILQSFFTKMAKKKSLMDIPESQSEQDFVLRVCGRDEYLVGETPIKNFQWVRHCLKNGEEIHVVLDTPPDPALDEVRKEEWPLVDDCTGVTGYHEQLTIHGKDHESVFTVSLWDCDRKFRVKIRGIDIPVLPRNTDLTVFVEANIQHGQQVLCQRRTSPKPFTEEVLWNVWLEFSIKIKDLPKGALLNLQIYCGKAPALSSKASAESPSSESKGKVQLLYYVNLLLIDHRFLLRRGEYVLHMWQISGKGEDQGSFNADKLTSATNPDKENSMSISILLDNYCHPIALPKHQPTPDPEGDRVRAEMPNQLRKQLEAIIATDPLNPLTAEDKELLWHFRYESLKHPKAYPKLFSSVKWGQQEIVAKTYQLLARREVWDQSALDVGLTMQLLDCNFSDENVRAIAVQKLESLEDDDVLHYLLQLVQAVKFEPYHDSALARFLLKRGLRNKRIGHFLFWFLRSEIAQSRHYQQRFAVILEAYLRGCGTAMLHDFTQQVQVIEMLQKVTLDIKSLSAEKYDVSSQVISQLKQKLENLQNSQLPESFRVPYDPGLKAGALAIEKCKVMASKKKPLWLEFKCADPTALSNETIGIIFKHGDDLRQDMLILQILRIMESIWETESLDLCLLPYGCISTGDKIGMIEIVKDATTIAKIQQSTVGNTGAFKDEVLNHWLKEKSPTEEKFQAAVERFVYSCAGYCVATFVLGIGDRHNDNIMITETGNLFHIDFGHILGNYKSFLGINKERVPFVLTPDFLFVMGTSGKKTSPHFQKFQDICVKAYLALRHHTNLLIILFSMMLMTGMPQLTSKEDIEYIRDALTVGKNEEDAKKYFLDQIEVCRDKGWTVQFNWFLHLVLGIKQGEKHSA

SMILES | IC50 [1] | IC50 [2] | IC50 [3]
[2H]C([2H])([2H])c1ccc(S(=O)(=O)NC23CCC(C#N)(C2)C3)cc1-c1cnc(N)c(-c2ccncn2)n1 [Example 72, 3-(5-Amino-6-(pyrimidin-4-yl)pyrazin-2-yl)-N-(4-cyanobicyclo[2.1.1]hexan-1-yl)-4-(methyl-d3)benzenesulfonamide trifluoroacetate salt] | ≤ 100 nM | ≤ 100 nM | ≤ 100 nM
Cc1ncc(-c2nc(-c3cc(S(=O)(=O)NC45CCC(O)(CC4)C5)ccc3C)cnc2N)s1 [Example 7, 3-(5-Amino-6-(2-methylthiazol-5-yl)pyrazin-2-yl)-N-(4-hydroxybicyclo[2.2.1]heptan-1-yl)-4-methylbenzenesulfonamide trifluoroacetate salt] | ≤ 100 nM | ≤ 100 nM | ≤ 100 nM
Cc1ncc(-c2nc(-c3cc(S(=O)(=O)NC45CCC(CO)(CC4)OC5)ccc3C)cnc2N)s1 [Example 6, 3-(5-Amino-6-(2-methylthiazol-5-yl)pyrazin-2-yl)-N-(1-(hydroxymethyl)-2-oxabicyclo[2.2.2]octan-4-yl)-4-methylbenzenesulfonamide trifluoroacetate salt] | ≤ 100 nM | ≤ 100 nM | ≤ 100 nM
[2H]C([2H])([2H])c1ccc(S(=O)(=O)NC23CCC(C#N)(C2)C3)cc1-c1cnc(N)c(-c2cnc(N(C)C)nc2)n1 [Example 67, 3-(5-Amino-6-(2-(dimethylamino)pyrimidin-5-yl)pyrazin-2-yl)-N-(4-cyanobicyclo[2.1.1]hexan-1-yl)-4-(methyl-d3)benzenesulfonamide trifluoroacetate salt] | ≤ 100 nM | ≤ 500 nM | ≤ 100 nM
Cc1ccc(S(=O)(=O)NC23CCC(C#N)(C2)C3)cc1-c1cnc(N)c(-n2cccn2)n1 [Example 62, 3-(5-Amino-6-(1H-pyrazol-1-yl)pyrazin-2-yl)-N-(4-cyanobicyclo[2.1.1]hexan-1-yl)-4-methylbenzenesulfonamide Trifluoroacetate Salt] | ≤ 100 nM | ≤ 100 nM | ≤ 100 nM
Cc1ccc(S(=O)(=O)NC23CC(CO)(C2)C3)cc1-c1cnc(N)c(-c2cn(C)nc2C)n1 [Example 15, 3-(5-amino-6-(1,3-dimethyl-1H-pyrazol-4-yl)pyrazin-2-yl)-N-(3-(hydroxymethyl)bicyclo[1.1.1]pentan-1-yl)-4-methylbenzenesulfonamide trifluoroacetate salt] | ≤ 100 nM | ≤ 500 nM | ≤ 500 nM
Cc1ccc(S(=O)(=O)NC23CC(C(=O)N4CCC4)(C2)C3)cc1-c1cnc(N)c(-n2cncn2)n1 [Example 34, 3-(5-Amino-6-(1H-1,2,4-triazol-1-yl)pyrazin-2-yl)-N-(3-(azetidine-1-carbonyl)bicyclo[1.1.1]pentan-1-yl)-4-methylbenzenesulfonamide trifluoroacetate salt] | ≤ 100 nM | ≤ 500 nM | ≥ 1000 nM
Cc1ccc(S(=O)(=O)NC23CCC(O)(CC2)C3)cc1-c1cnc(N)c(-c2cccnc2)n1 [Example 16, 3-(5-Amino-6-(pyridin-3-yl)pyrazin-2-yl)-N-(4-hydroxybicyclo[2.2.1]heptan-1-yl)-4-methylbenzenesulfonamide Trifluoroacetate Salt] | ≤ 100 nM | ≤ 100 nM | ≤ 500 nM
[2H]C([2H])([2H])c1ccc(S(=O)(=O)NC23CC(CO)(C2)C3)cc1-c1cnc(N)c(-c2cnco2)n1 [Example 75, 3-(5-Amino-6-(oxazol-5-yl)pyrazin-2-yl)-N-(3-(hydroxymethyl)bicyclo[1.1.1]pentan-1-yl)-4-(methyl-d3)benzenesulfonamide trifluoroacetate salt] | ≤ 100 nM | ≤ 500 nM | ≤ 100 nM
[2H]C([2H])([2H])c1ccc(S(=O)(=O)NC23CCN(CC2)C3)cc1-c1cnc(N)c(-c2cnc(C)s2)n1 [Example 91, 3-(5-amino-6-(2-methylthiazol-5-yl)pyrazin-2-yl)-N-(1-azabicyclo[2.2.1]heptan-4-yl)-4-(methyl-d3)benzenesulfonamide] | ≤ 100 nM | ≤ 100 nM | ≤ 100 nM
[2H]C([2H])([2H])c1ccc(S(=O)(=O)NC23CCC(C#N)(C2)C3)cc1-c1cnc(N)c(-c2cnco2)n1 [Example 69, 3-(5-Amino-6-(oxazol-5-yl)pyrazin-2-yl)-N-(4-cyanobicyclo[2.1.1]hexan-1-yl)-4-(methyl-d3)benzenesulfonamide trifluoroacetate salt] | ≤ 100 nM | ≤ 100 nM | ≤ 100 nM
Cc1ccc(S(=O)(=O)NC23CCC(CO)(C2)C3)cc1-c1cnc(N)c(-n2cncn2)n1 [Example 25, 3-(5-Amino-6-(1H-1,2,4-triazol-1-yl)pyrazin-2-yl)-N-(4-(hydroxymethyl)bicyclo[2.1.1]hexan-1-yl)-4-methylbenzenesulfonamide trifluoroacetate salt] | ≤ 100 nM | ≤ 100 nM | ≤ 100 nM
Cc1ccc(S(=O)(=O)NC23CC(C#N)(C2)C3)cc1-c1cnc(N)c(-n2nccn2)n1 [Example 41, 3-(5-Amino-6-(2H-1,2,3-triazol-2-yl)pyrazin-2-yl)-N-(3-cyanobicyclo[1.1.1]pentan-1-yl)-4-methylbenzenesulfonamide Trifluoroacetate Salt] | ≤ 100 nM | ≤ 100 nM | ≤ 100 nM
[2H]C([2H])([2H])c1ccc(S(=O)(=O)NC23CCC(C#N)(C2)C3)cc1-c1cnc(N)c(-c2ncco2)n1 [Example 71, 3-(5-Amino-6-(oxazol-2-yl)pyrazin-2-yl)-N-(4-cyanobicyclo[2.1.1]hexan-1-yl)-4-(methyl-d3)benzenesulfonamide trifluoroacetate salt] | ≤ 100 nM | ≤ 500 nM | ≤ 500 nM
